Patent US20170232043A1, “BACTERIA ENGINEERED TO TREAT DISORDERS INVOLVING THE CATABOLISM OF A BRANCHED CHAIN AMINO ACID” (priority 2015, published 2017)

B1: LAADPm: L-AAD derived from P. mirabilis (protein)
chain: MAISRRKFILGGTVVAVAAGAGVLTPMLTREGRFVPGTPRHGFVEGTGGPLPKQDDVVVIGAGILGIMTAINLAERGLSVTIVEKGNIAGEQSSRFYGQAISYKMPDETFLLHHLGKHRWREMNAKVGIDTTYRTQGRVEVPLDEEDLENVRKWIDAKSKDVGSDIPFRTKMIEGAELKQRLRGATTDWKIAGFEEDSGSFDPEVATFVMAEYAKKMGIKIFTNCAARGLETQAGVISDVVTEKGPIKTSRVVVAGGVGSRLFMQNLNVDVPTLPAYQSQQLISAAPNAPGGNVALPGGIFFRDQADGTYATSPRVIVAPVVKESFTYGYKYLPLLALPDFPVHISLNEQLINSFMQSTHWDLNEESPFEKYRDMTALPDLPELNASLEKLKKEFPAFKESTLIDQWSGAMAIAPDENPIISDVKEYPGLVINTATGWGMTESPVSAEITADLLLGKKPVLDAKPFSLYRF
modifications: Synthetic: L-AAD Nucleotide sequence
notes: L-AAD derived from P. mirabilis
B2: BrnQ: low affinity BCAA transporter (protein)
chain: MTHQLRSRDIIALGFMTFALFVGAGNIIFPPMVGLQAGEHVWTAAFGFLITAVGLPVLTVVALAKVGGGVDSLSTPIGKVAGVLLATVCYLAVGPLFATPRTATVSFEVGIAPLTGDSALPLFIYSLVYFAIVILVSLYPGKLLDTVGNFLAPLKIIALVILSVAAIIWPAGSISTATEAYQNAAFSNGFVNGYLTMDTLGAMVFGIVIVNAARSRGVTEARLLTRYTVWAGLMAGVGLTLLYLALFRLGSDSASLVDQSANGAAILHAYVQHTFGGGGSFLLAALIFIACLVTAVGLTCACAEFFAQYVPLSYRTLVFILGGFSMVVSNLGLSQLIQISVPVLTAIYPPCIALVVLSFTRSWWHNSSRVIAPPMFISLLFGILDGIKASAFSDILPSWAQRLPLAEQGLAWLMPTVVMVVLAIIWDRAAGRQVTSSAH
modifications: BCAA transporter BrnQ
B3: LeuDH: leucine dehydrogenase from Pseudomonas aeruginosa, expressed in the engineered strain (protein)
chain: MFDMMDAARLEGLHLAQDPATGLKAIIAIHSTRLGPALGGCRYLPYPNDEAAIGDAIRLAQGMSYKAALAGLEQGGGKAVIIRPPHLDNRGALFEAFGRFIESLGGRYITAVDSGTSSADMDCIAQQTRHVTSTTQAGDPSPHTALGVFAGIRASAQARLGSDDLEGLRVAVQGLGHVGYALAEQLAAVGAELLVCDLDPGRVQLAVEQLGAHPLAPEALLSTPCDILAPCGLGGVLTSQSVSQLRCAAVAGAANNQLERPEVADELEARGILYAPDYVINSGGLIYVALKHRGADPHSITAHLARIPARLTEIYAHAQADHQSPARIADRLAERILYGPQ
modifications: Synthetic: leuDH codon-optimized nucleotide sequence
notes: leucine dehydrogenase from Pseudomonas aeruginosa, expressed in the engineered strain

Tests used:
[1] = system: rat; settings: cited from earlier work
[2] = system: Pm1: amino acid deaminase gene from P. mirabilis KCTC 2566; settings: relative within the enzyme; cited from earlier work
[3] = system: Pma: amino acid deaminase gene from P. mirabilis; settings: relative within the enzyme; cited from earlier work
[4] = system: LAD: L-amino acid deaminase of P. vulgaris; settings: relative within the enzyme; cited from earlier work
[5] = target: LivK (Escherichia coli, UniProt P04816); settings: cited from earlier work
[6] = system: nitric oxide inducible PnsrR-GFP reporter construct; test: Nitric oxide inducible PnsrR-GFP reporter construct, fluorescence in plate reader (Example 28); format: cell-based, E. coli Nissle; settings: DETA-NO as NO donor, two-fold decreased inducer, across a range of concentrations
[7] = system: ATC-inducible Ptet-GFP reporter construct; test: ATC-inducible Ptet-GFP reporter construct, fluorescence in plate reader (Example 28); format: cell-based, E. coli Nissle; settings: two-fold decreased inducer, across a range of concentrations
[8] = system: leucine; test: in vitro leucine degradation assay (leucine in culture medium by LC-MS/MS); format: cell-based, E. coli Nissle

Sequence of LivK (P04816 24-369): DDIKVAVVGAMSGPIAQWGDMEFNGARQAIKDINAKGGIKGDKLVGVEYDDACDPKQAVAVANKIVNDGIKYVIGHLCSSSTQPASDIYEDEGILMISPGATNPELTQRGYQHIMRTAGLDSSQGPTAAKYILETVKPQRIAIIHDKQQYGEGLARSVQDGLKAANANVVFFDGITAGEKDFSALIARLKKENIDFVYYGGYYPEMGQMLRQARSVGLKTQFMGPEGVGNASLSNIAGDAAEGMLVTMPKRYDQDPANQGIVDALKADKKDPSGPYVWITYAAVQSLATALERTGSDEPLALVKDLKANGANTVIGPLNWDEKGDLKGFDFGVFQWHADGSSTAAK

| Molecule | amino acid deaminase activity of Pm1, percentage [2] [%] | amino acid deaminase activity of Pma, percentage [3] [%] | amino acid deaminase activity of LAD, percentage [4] [%] | further results |
| --- | --- | --- | --- | --- |
| CC(C)CO [Isobutanol] | – | – | – | Oral NOAEL* (rat) ([1]; No-Observed-Adverse-Effect): >1450 mg/kg/day |
| C[C@H](N)C(=O)O [Ala] | 9 | 0.6 | 3.5 | – |
| N[C@@H](Cc1c[nH]cn1)C(=O)O [His] | 100 | 0 | 79.9 | – |
| N[C@@H](CCC(=O)O)C(=O)O [Glu] | 35.8 | 0.6 | 1.1 | – |
| O=C(O)[C@@H]1CCCN1 [Pro] | 14.2 | 3.2 | 0.7 | – |
| CC(C)[C@H](N)C(=O)O [Val, valine] | 6.4 | 1.3 | – | – |
| CSCC[C@H](N)C(=O)O [Met] | 2.6 | 16.7 | 100 | – |
| NC(=O)CC[C@H](N)C(=O)O [Gln] | 5.2 | 1.3 | 1.1 | – |
| N[C@@H](CO)C(=O)O [Ser] | 3.8 | 1.3 | – | – |
| N=C(N)NCCC[C@H](N)C(=O)O [Arg] | 51.2 | 28.2 | 27.3 | – |
| N[C@@H](CS)C(=O)O [Cys] | 9 | 1.9 | – | – |
| CC[C@H](C)[C@H](N)C(=O)O [Ilu, isoleucine] | 6.4 | 2.6 | – | – |
| N[C@@H](Cc1ccc(O)cc1)C(=O)O [Tyr] | 9 | 0.6 | 92.8 | – |
| CC(C)CCO [Isopentanol] | – | – | – | Oral LD50 (rat) [1]: >5000 mg/kg |
| NCCCC[C@H](N)C(=O)O [Lys] | 7.6 | 1.9 | 3.5 | – |
| NC(=O)C[C@H](N)C(=O)O [Asn] | 5.2 | 0 | 43.6 | – |
| CC(C)C[C@H](N)C(=O)O [Leu, leucine] | 7.6 | 41.7 | 105 | Kd [5]: ~1 µM |
| C[C@@H](O)[C@H](N)C(=O)O [Thr] | 12.8 | 0 | 1.1 | – |
| NCCN(CCN)[N+]([O-])=NO [NO] | – | – | – | expression of GFP (relative florescence units) [6]: able to induce the expression of GFP |
| NCC(=O)O [Gly] | 7.6 | 1.3 | – | – |
| N[C@@H](Cc1ccccc1)C(=O)O [Phe] | 46.2 | 100 | 37.4 | – |
| Cc1c2c(c(O)c3c(O)cccc13)C(=O)[C@]1(O)C(=O)C(C(N)=O)=C(O)[C@@H](N(C)C)[C@@H]1C2 [ATC, anhydrotetracycline] | – | – | – | expression of GFP (relative florescence units) [7]: able to induce the expression of GFP |
| N[C@@H](CC(=O)O)C(=O)O [Asp] | 2.6 | 10.9 | 55.4 | – |
| N[C@@H](Cc1c[nH]c2ccccc12)C(=O)O [Trp] | 10.2 | 3.2 | 41.6 | – |
| B1 | – | – | – | leucine degradation rate, comparison of adh2, yqhD, padA and of LAADPv, LAADPm ([8]; SYN469 background, with L-AAD and kivD): good alternative to LAADPV |
| B2 | – | – | – | rate of leucine degradation with overexpression of BrnQ ([8]; LeuE and ilvC knockout strain with leuDH-kivD-padA on high copy plasmid, tet inducible brnQ on low copy plasmid): greatly improves the rate of leucine degradation |
| B3 | – | – | – | rate of leucine degradation ([8]; background strain Nissle ΔleuE, lacZ:tet-livKHMGF): about 160 nmol/10^9 CFU/hour |
